In ChEMBL document CHEMBL5223077, “Recent advances on synthesis and biological activities of aurones” (Bioorg Med Chem, 2021):
≈ marks a conversion by molar mass, not a printed value.

What was measured:
[1] = tested on: HT-29; test: Antiproliferative activity against human HT-29 cells assessed as cell growth inhibition; assay type: functional, cell-based
[2] = tested on: HL-60; test: Antiproliferative activity against human HL-60 cells assessed as cell growth inhibition; assay type: functional, cell-based
[3] = Antioxidant activity assessed as DPPH radical scavenging activity relative to control; assay type: functional; design: concentration or dose not given beside the values
[4] = biological target: T1, Nitric oxide synthase, inducible (Mus musculus, UniProt P29477); test: Inhibition of iNOS expression in LPS-induced mouse RAW264.7 cells; assay type: cell-based
T1 sequence (P29477 whole entry): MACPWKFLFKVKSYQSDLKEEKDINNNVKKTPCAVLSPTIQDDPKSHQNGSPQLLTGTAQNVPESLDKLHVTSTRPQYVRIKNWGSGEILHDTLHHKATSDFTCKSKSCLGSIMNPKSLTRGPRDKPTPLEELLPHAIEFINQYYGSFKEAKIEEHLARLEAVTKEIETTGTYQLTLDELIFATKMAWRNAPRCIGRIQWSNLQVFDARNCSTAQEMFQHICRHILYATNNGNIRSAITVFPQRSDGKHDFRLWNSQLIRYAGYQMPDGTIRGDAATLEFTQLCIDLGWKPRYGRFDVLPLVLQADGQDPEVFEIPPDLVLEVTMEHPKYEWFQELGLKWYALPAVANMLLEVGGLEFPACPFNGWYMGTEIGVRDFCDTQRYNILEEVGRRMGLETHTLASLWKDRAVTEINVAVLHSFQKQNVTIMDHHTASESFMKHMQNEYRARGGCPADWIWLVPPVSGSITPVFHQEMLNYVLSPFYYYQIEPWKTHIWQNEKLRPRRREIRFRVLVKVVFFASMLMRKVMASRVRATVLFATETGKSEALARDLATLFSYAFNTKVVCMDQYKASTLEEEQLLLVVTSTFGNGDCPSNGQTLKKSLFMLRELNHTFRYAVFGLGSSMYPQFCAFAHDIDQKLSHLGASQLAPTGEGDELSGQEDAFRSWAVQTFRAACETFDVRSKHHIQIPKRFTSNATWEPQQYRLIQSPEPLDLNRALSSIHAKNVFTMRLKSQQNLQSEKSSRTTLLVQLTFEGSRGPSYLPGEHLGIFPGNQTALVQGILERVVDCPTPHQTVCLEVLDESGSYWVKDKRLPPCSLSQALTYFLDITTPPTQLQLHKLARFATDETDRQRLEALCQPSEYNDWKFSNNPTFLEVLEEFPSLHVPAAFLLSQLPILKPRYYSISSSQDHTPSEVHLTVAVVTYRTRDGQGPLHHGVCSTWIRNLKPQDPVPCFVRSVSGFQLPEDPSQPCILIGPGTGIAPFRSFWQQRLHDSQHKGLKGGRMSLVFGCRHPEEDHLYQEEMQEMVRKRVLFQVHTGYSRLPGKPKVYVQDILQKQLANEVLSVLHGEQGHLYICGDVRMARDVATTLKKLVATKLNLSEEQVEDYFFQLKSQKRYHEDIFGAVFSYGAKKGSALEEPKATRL

[5] = tested on: Candida albicans; test: Antifungal activity against Candida albicans assessed as inhibition of fungal growth; assay type: functional
[6] = tested on: Staphylococcus aureus; test: Antimicrobial activity against Staphylococcus aureus assessed as inhibition of bacterial growth; assay type: functional
[7] = tested on: Bacillus subtilis; test: Antimicrobial activity against Bacillus subtilis assessed as inhibition of bacterial growth; assay type: functional
[8] = tested on: Plasmodium falciparum; test: Antiplasmodial activity against Plasmodium falciparum 3D7; assay type: functional, organism-based
[9] = Antioxidant activity assessed as DPPH radical scavenging activity; assay type: functional
[10] = tested on: MES-SA; test: Antiproliferative activity against human MES-SA cells assessed as cell growth inhibition; assay type: functional, cell-based
[11] = tested on: MES-SA/Dx5; test: Antiproliferative activity against human MES-SA/Dx5 cells assessed as cell growth inhibition; assay type: functional, cell-based
[12] = tested on: Mycolicibacterium smegmatis; test: Anti-mycobacterial activity against Mycobacterium smegmatis assessed as inhibition of bacterial growth; assay type: functional
[13] = tested on: Fusarium oxysporum; test: Antifungal activity against Fusarium oxysporum assessed as inhibition of fungal growth; assay type: functional
[14] = tested on: Mycobacterium tuberculosis; test: Antimycobacterial activity against Mycobacterium tuberculosis; assay type: functional
[15] = Antioxidant activity assessed as ABTS radical scavenging activity; assay type: functional
[16] = Inhibition of CDK5/p25 (unknown origin); design: species or system Homo sapiens
[17] = biological target: Tubulin; test: Inhibition of tubulin (unknown origin); assay type: protein-complex assay, Homo sapiens
[18] = tested on: Plasmodium falciparum; test: Antiplasmodial activity against Plasmodium falciparum W2; assay type: functional, organism-based
[19] = tested on: Plasmodium falciparum; test: Antiplasmodial activity against Plasmodium falciparum D6; assay type: functional, organism-based
[20] = tested on: K562; test: Antiproliferative activity against human K562 cells assessed as cell growth inhibition at 10 uM relative to control; assay type: functional, cell-based
[21] = tested on: MDA-MB-435; test: Antiproliferative activity against human MDA-MB-435 cells assessed as cell growth inhibition at 10 uM relative to control; assay type: functional, cell-based
[22] = biological target: Maltase-glucoamylase (Homo sapiens, UniProt O43451); test: Inhibition of alpha-glucosidase (unknown origin)
Maltase-glucoamylase, sequence (O43451 whole entry): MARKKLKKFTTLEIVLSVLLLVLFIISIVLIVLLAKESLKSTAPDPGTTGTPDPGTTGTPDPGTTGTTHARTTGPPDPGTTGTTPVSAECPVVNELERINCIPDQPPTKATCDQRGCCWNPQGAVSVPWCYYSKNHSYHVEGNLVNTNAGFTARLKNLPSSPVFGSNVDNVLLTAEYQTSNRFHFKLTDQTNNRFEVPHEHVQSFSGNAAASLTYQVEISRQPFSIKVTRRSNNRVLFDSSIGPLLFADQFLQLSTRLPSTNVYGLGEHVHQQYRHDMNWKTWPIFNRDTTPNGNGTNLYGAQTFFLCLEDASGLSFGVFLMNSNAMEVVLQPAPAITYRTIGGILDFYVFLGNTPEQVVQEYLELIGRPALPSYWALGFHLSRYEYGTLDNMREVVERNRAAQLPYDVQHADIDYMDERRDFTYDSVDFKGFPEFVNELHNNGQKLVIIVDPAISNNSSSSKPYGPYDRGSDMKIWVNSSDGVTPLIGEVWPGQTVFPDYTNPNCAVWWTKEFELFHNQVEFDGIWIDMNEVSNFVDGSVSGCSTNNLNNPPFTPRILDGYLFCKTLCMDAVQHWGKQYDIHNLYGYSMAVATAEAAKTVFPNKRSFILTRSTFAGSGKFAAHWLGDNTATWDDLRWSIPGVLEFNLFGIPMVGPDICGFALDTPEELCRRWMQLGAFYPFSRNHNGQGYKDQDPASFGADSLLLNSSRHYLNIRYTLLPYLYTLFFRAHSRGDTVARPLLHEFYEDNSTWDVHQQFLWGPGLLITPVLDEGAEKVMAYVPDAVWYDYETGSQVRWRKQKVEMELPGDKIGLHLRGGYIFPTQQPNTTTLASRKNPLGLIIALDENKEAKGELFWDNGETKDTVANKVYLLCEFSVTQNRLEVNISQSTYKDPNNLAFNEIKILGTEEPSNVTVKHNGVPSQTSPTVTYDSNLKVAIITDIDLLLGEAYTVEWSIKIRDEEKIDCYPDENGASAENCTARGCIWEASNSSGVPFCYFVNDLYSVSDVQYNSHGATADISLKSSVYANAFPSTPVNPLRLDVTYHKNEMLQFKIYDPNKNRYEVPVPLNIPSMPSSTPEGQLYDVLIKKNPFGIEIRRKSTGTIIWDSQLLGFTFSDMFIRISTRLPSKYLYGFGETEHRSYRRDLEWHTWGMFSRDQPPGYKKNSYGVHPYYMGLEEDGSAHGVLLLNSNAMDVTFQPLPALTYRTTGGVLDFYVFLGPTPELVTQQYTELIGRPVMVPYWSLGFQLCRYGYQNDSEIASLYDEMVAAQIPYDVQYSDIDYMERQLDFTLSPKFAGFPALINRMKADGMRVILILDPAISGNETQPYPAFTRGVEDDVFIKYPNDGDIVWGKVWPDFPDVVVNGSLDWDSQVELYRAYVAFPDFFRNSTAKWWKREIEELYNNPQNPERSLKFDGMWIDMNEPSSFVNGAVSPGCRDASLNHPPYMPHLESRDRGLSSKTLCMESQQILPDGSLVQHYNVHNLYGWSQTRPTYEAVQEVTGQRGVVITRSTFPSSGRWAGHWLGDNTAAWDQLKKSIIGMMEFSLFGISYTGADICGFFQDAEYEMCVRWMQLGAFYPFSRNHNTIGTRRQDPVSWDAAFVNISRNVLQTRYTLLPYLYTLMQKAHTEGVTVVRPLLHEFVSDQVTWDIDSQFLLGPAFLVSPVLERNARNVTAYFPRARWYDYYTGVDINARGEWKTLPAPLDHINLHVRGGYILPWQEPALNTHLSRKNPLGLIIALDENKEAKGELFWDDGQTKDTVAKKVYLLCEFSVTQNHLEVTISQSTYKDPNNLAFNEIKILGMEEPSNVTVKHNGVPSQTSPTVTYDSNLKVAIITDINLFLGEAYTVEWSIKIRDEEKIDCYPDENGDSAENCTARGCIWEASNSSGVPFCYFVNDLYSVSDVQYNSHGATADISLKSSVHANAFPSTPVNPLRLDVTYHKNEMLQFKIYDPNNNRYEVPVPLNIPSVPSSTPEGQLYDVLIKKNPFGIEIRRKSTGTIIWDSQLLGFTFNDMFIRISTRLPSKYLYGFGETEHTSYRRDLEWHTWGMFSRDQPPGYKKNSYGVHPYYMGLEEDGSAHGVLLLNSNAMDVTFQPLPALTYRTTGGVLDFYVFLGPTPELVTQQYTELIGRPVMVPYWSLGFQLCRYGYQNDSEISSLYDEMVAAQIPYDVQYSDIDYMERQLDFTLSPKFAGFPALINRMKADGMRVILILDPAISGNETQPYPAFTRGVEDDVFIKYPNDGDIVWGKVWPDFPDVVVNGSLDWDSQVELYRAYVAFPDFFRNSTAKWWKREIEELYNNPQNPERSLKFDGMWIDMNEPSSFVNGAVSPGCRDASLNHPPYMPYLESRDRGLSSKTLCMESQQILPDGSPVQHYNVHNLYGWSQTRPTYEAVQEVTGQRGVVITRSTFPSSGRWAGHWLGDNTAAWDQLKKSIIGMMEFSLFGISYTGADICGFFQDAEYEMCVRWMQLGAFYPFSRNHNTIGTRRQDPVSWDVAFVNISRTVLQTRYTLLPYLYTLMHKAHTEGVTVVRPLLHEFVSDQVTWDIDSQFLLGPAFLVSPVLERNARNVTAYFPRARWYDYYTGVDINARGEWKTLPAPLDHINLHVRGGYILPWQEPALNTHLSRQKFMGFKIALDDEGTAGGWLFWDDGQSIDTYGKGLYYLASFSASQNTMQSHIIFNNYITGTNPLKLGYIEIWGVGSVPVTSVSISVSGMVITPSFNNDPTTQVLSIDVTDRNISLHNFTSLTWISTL

C=CCOc1ccc2c(c1)O/C(=C\c1ccc(C(F)(F)F)cc1)C2=O showed an IC50 [1] of 4.12 µM and an IC50 [2] of 3.53 µM.

In the case of COc1cc(/C=C2\Oc3c(ccc(O)c3OC)C2=O)ccc1O, the Activity [3] is reported as 47.4%.

Compound CC1(C)CCc2c(ccc3c2O/C(=C\c2ccccc2)C3=O)O1 has an IC50 [4] of 12.2 µM.

O=C1/C(=C/c2cc3cc(Br)ccc3nc2Cl)Oc2cc(O)cc(O)c21 showed an MIC [5] of 78 µg/mL (≈ 186 µM), an MIC [6] of 1250 µg/mL (≈ 2990 µM) and an MIC [7] of 313 µg/mL (≈ 748 µM).

For COc1ccc2c(c1OC)O/C(=C\c1ccc(O)c(O)c1)C2=O, the Activity [3] was 85.8%.

Compound O=C1/C(=C/c2ccc(C(F)(F)F)cc2)Oc2cc(O)ccc21 has an IC50 [1] of 8.9 µM and an IC50 [2] of 1.54 µM.

Compound CCOc1c(Br)cc(/C=C2\Oc3cc(OC)cc(OC)c3C2=O)cc1OC has an IC50 [8] of 7.27 µM.

O=C1/C(=C/c2ccc(C(F)(F)F)cc2)Oc2cc(OCc3ccccc3)ccc21 gave an IC50 [1] of 4.12 µM and an IC50 [2] of 3.46 µM.

O=C1c2ccccc2OC1(O)Cc1ccc(Cl)cc1 (centres undefined) showed an IC50 [9] of 54 µM.

CCCCCCCOc1ccc2c(c1)O/C(=C\c1ccc(C(F)(F)F)cc1)C2=O showed an IC50 [1] of 4.32 µM and an IC50 [2] of 2.67 µM.

Work on CC1(C)CCc2c(ccc3c2O/C(=C\c2ccccn2)C3=O)O1 yielded an IC50 [4] of 8.41 µM.

O=C1/C(=C/c2ccc(Cl)cc2)Oc2ccccc21 showed an IC50 [9] of 92 µM.

Compound Cc1ccc(/C=C2\Oc3c(ccc4c3CCC(C)(C)O4)C2=O)o1 has an IC50 [4] of 11.9 µM.

With CCCCc1ccc(/C=C2\Nc3cc(OC)cc(OC)c3C2=O)cc1 the IC50 [10] was 17.8 µM and the IC50 [11] was 3.7 µM.

For O=C1/C(=C/c2cc3ccccc3nc2Cl)Oc2cc(O)cc(O)c21, the MIC [12] was 625 µg/mL (≈ 1840 µM), the MIC [13] was 625 µg/mL (≈ 1840 µM) and the MIC [6] was 1250 µg/mL (≈ 3680 µM). For the same compound, the MIC [7] was 20 µg/mL (≈ 58.9 µM).

COc1c(O)ccc2c1O/C(=C\c1ccc(O)c(O)c1)C2=O showed an Activity [3] of 84.2%.

In the case of COc1cc(/C=C2\Oc3c(ccc4c3CCC(C)(C)O4)C2=O)ccc1O, the IC50 [4] is reported as 5.22 µM.

CC(=O)N1/C(=C\c2ccc(-c3ccsc3)cc2)C(=O)c2ccccc21 gave an MIC99 [14] of 0.6 µM (≈ 0.207 µg/mL).

Work on CC(=O)N1/C(=C\c2ccc(Br)cc2)C(=O)c2ccccc21 yielded an MIC99 [14] of 0.37 µM (≈ 0.127 µg/mL).

COc1cc2c(c(OC)c1)C(=O)/C(=C/c1ccc(C(C)C)cc1)N2 showed an IC50 [10] of 17.1 µM and an IC50 [11] of 5.8 µM.

CCOc1ccc2c(c1)O/C(=C\c1ccc(C(F)(F)F)cc1)C2=O gave an IC50 [1] of 9.12 µM and an IC50 [2] of 1.65 µM.

In the case of COc1cc(OC)c(C2=CCN(Cc3ccccc3)CC2)c2c1C(=O)/C(=C/c1ccc(Br)cc1)O2, the IC50 [15] is reported as 87 µM.

Cc1cc(C)c2cc(/C=C3\Oc4cc(O)cc(O)c4C3=O)c(Cl)nc2c1 gave an MIC [5] of 156 µg/mL (≈ 424 µM), an MIC [12] of 78 µg/mL (≈ 212 µM) and an MIC [13] of 313 µg/mL (≈ 851 µM). For the same compound, the MIC [6] was 2500 µg/mL (≈ 6800 µM) and the MIC [7] was 156 µg/mL (≈ 424 µM).

In the case of CC(=O)N1/C(=C\c2ccc(-c3cncc4ccccc34)cc2)C(=O)c2ccccc21, the MIC99 [14] is reported as 0.74 µM (≈ 0.289 µg/mL).

COc1ccc2c(c1)O/C(=C\c1cc(O)ccc1O)C2=O gave an IC50 [9] of 35.9 µM.

Compound CC1(C)CCc2c(ccc3c2O/C(=C\c2ccc(O)c(O)c2)C3=O)O1 has an IC50 [4] of 8.09 µM.

Compound Cc1ccc2cc(/C=C3\Oc4cc(O)cc(O)c4C3=O)c(Cl)nc2c1C has an MIC [6] of 1250 µg/mL (≈ 3400 µM) and an MIC [7] of 625 µg/mL (≈ 1700 µM).

For CCCOc1c(Br)cc(/C=C2\Oc3cc(OC)cc(OC)c3C2=O)cc1OC, the IC50 [8] was 2.3 µM.

Compound O=C1/C(=C/c2ccc(O)c(O)c2)Oc2cc(O)cc(O)c21 [AUREUSIDIN] has an IC50 [16] of 4.81 µM.

In the case of CC1(C)CCc2c(ccc3c2O/C(=C\c2cccc(O)c2)C3=O)O1, the IC50 [4] is reported as 10.8 µM.

In the case of COc1ccc(/C=C2\Oc3c(ccc(OC)c3OC)C2=O)cc1O, the Activity [3] is reported as 8.9%.

In the case of COc1cc2c(c(OC)c1)C(=O)/C(=C/c1c(C)c(C)cc(C)c1C)N2, the IC50 [10] is reported as 9.2 µM and the IC50 [11] is reported as 19.5 µM.

COc1cc(/C=C2\Oc3c(ccc(OC)c3OC)C2=O)ccc1O showed an Activity [3] of 32.8%.

With CCn1cc(/C=C2\Oc3cc(OCC#N)cc(O)c3C2=O)c2cc(OC)ccc21 the IC50 [17] was 58.6 µM.

COc1cc(OC)c2c(c1)O/C(=C\c1ccccc1)C2=O showed an IC50 [18] of 16.9 µM and an IC50 [19] of 16.9 µM.

COc1cc(OC)c(C2=CCN(Cc3ccccc3)CC2)c2c1C(=O)/C(=C/c1ccc(F)cc1)O2 showed an IC50 [15] of 71.7 µM.

C#Cc1cccc(Nc2ncnc3cc(OCCOC)c(OCCOC)cc23)c1 [ERLOTINIB] gave an IC50 [20] of 3.29 µM and an IC50 [21] of 7.05 µM.

For COc1cc2c(c(OC)c1)C(=O)/C(=C/c1ccc(C(C)(C)C)cc1)N2, the IC50 [10] was 11.9 µM and the IC50 [11] was 3.4 µM.

COc1cc(OC)c2c(c1)O/C(=C\c1ccc(OC)c(OC)c1)C2=O [4,6,3',4'-TETRAMETHOXYAURONE] gave an IC50 [18] of 13.9 µM, an IC50 [19] of 13.9 µM and an IC50 [8] of 7.82 µM.

For COc1cc(/C=C2\Oc3cc4occc4c(OC)c3C2=O)ccc1OCC(=O)Nc1ccccc1, the inhibition of growth at 10 µM ([20]; dose 10 µM, read-out: GI) was 70.3%, the IC50 [21] was 7.05 µM and the inhibition of growth at 10 µM ([21]; dose 10 µM, read-out: GI) was 79.6%.

For O=C1/C(=C/c2ccncc2)Oc2cc(OCc3c(Cl)cccc3Cl)ccc21, the IC50 [17] was 66 µM.

COc1ccc2c(c1)O/C(=C\c1ccc(C(F)(F)F)cc1)C2=O showed an IC50 [1] of 5.9 µM and an IC50 [2] of 2.59 µM.

In the case of CC(C)=CCc1c(O)ccc2c1O/C(=C\c1ccc(O)cc1)C2=O, the IC50 [22] is reported as 73.8 µM.
